Data set [1] in a line: The drug is tested on Providencia stuartii strain: ATCC25827 for biotransformation. The drug concentrations were measured before and after a 12-h incubation by liquid-chromatography-coupled mass spectrometry (LC–MS). The settings on record: 2 µM.
Data set [2] can be described thus: The drug is tested on Edwardsiella tarda strain: ATCC23685 for biotransformation. The drug concentrations were measured before and after a 12-h incubation by liquid-chromatography-coupled mass spectrometry (LC–MS). The settings on record: 2 µM.
Data set [3] in a line: The drug is tested on Bacteroides pectinophilus strain: ATCC43243 for biotransformation. The drug concentrations were measured before and after a 12-h incubation by liquid-chromatography-coupled mass spectrometry (LC–MS). The conditions noted are these: 2 µM.
Data set [4] can be described thus: The drug is tested on Bacteroides fragilis strain: HMW615 for biotransformation. The drug concentrations were measured before and after a 12-h incubation by liquid-chromatography-coupled mass spectrometry (LC–MS). The conditions noted are these: 2 µM.
Data set [5] can be described thus: The drug is tested on Bacteroides fragilis strain: HMW610 for biotransformation. The drug concentrations were measured before and after a 12-h incubation by liquid-chromatography-coupled mass spectrometry (LC–MS). The conditions noted are these: 2 µM.
Data set [6] is described as follows: The drug is tested on Bacteroides xylanisolvens strain: DSM18836 for biotransformation. The drug concentrations were measured before and after a 12-h incubation by liquid-chromatography-coupled mass spectrometry (LC–MS). The conditions noted are these: 2 µM.
The nature of data set [7]: The drug is tested on Bacteroides vulgatus strain: ATCC8482 for biotransformation. The drug concentrations were measured before and after a 12-h incubation by liquid-chromatography-coupled mass spectrometry (LC–MS). The conditions noted are these: phocaeicola vulgatus, 2 µM.
The conditions of data set [8]: parabacteroides distasonis, 12 h, 2 µM.
Description: The drug is tested on Parabacteroides distasonis strain: ATCC8503 for biotransformation. The drug concentrations were measured before and after a 12-h incubation by liquid-chromatography-coupled mass spectrometry (LC–MS)
Data set [9] can be described thus: The drug is tested on Enterobacter cancerogenus strain: ATCC35316 for biotransformation. The drug concentrations were measured before and after a 12-h incubation by liquid-chromatography-coupled mass spectrometry (LC–MS). The conditions noted are these: 2 µM.
For data set [10] the following is noted: enterocloster bolteae, 12 h, 2 µM.
Description: The drug is tested on Clostridium bolteae strain: ATCCBAA-613 for biotransformation. The drug concentrations were measured before and after a 12-h incubation by liquid-chromatography-coupled mass spectrometry (LC–MS)
For data set [11] the following is noted: akkermansia muciniphila, 12 h, 2 µM.
Description: The drug is tested on Akkermansia muciniphila strain: ATCC BAA-835 for biotransformation. The drug concentrations were measured before and after a 12-h incubation by liquid-chromatography-coupled mass spectrometry (LC–MS)
Data set [12] can be described thus: The drug is tested on Ruminococcus gnavus strain: ATCC29149 for biotransformation. The drug concentrations were measured before and after a 12-h incubation by liquid-chromatography-coupled mass spectrometry (LC–MS). The settings on record: mediterraneibacter gnavus, 2 µM.
Data set [13] in a line: The drug is tested on Coprococcus comes strain: ATCC27758 for biotransformation. The drug concentrations were measured before and after a 12-h incubation by liquid-chromatography-coupled mass spectrometry (LC–MS). Set-up: dose 2 uM, timepoint 0 vs 12 hours. The conditions noted are these: 2 µM. It is filed as ADME.
The conditions of data set [14]: bacteroides intestinalis, 12 h, 2 µM.
Description: The drug is tested on Bacteroides intestinalis strain: DSM17393 for biotransformation. The drug concentrations were measured before and after a 12-h incubation by liquid-chromatography-coupled mass spectrometry (LC–MS)
A short description of data set [15]: The drug is tested on Dorea formicigenerans strain: ATCC27755 for biotransformation. The drug concentrations were measured before and after a 12-h incubation by liquid-chromatography-coupled mass spectrometry (LC–MS). The conditions noted are these: 2 µM.
A short description of data set [16]: The drug is tested on Bacteroides coprophilus strain: DSM18228 for biotransformation. The drug concentrations were measured before and after a 12-h incubation by liquid-chromatography-coupled mass spectrometry (LC–MS). The settings on record: 2 µM.
For data set [17] the following is noted: bacteroides stercoris, 12 h, 2 µM.
Description: The drug is tested on Bacteroides stercoris strain: ATCC43183 for biotransformation. The drug concentrations were measured before and after a 12-h incubation by liquid-chromatography-coupled mass spectrometry (LC–MS)
The conditions of data set [18]: parabacteroides johnsonii, 12 h, 2 µM.
Description: The drug is tested on Parabacteroides johnsonii strain: DSM18315 for biotransformation. The drug concentrations were measured before and after a 12-h incubation by liquid-chromatography-coupled mass spectrometry (LC–MS)

The results in this text go back to ChEMBL document CHEMBL5303573, “Mapping human microbiome drug metabolism by gut bacteria and their genes” (Nature, 2019).

Molecules are shown by their SMILES.

As for `CCN(CC)CCNC(C(=O)OCCC(C)C)c1ccccc1.Cl.Cl` (stereo unspecified), the “Bacterial Biotransformation” value in data set [1], in data set [2], in [3], in data set [4], in data set [5] and in [6] was “Compound NOT metabolized” throughout. Moreover, the “Bacterial Biotransformation” value in data set [7], in data set [8], in [9], in [10], in data set [11] and in data set [12] was “Compound NOT metabolized” throughout. The “Bacterial Biotransformation” value in [13], in [14], in data set [15] and in data set [16] was “Compound NOT metabolized” each time.
On to `CN1CC(=O)N2[C@H](c3ccc4c(c3)OCO4)c3[nH]c4ccccc4c3C[C@@H]2C1=O`, for which the “Bacterial Biotransformation” value in [2] was “Compound NOT metabolized”; in [3] it was “Compound NOT metabolized”; in data set [4], “Compound metabolized”; in data set [5], “Compound metabolized”; in data set [8], “Compound NOT metabolized”; in data set [10], “Compound NOT metabolized”. In addition, the “Bacterial Biotransformation” value in data set [11], in data set [12], in data set [13], in [14], in data set [15] and in data set [17] was “Compound NOT metabolized” each time. Also, the “Bacterial Biotransformation” value in data set [16] is listed as “Compound NOT metabolized”.
With `Br.CN1CCC[C@@H]1Cc1c[nH]c2ccc(CCS(=O)(=O)c3ccccc3)cc12` [ELETRIPTAN HYDROBROMIDE], the “Bacterial Biotransformation” value in data set [1], in [2], in [3], in data set [5], in [6] and in data set [7] was “Compound NOT metabolized” each time. Moreover, the “Bacterial Biotransformation” value in data set [8], in data set [10], in data set [11], in data set [12], in data set [13] and in data set [14] was “Compound NOT metabolized” throughout. Besides, the “Bacterial Biotransformation” value in data set [15], in data set [17] and in data set [16] was “Compound NOT metabolized” throughout.
Consider `CC12CC3CC(C)(C1)CC(N)(C3)C2` [MEMANTINE], for which the “Bacterial Biotransformation” value in data set [1], in [2], in [3], in data set [4], in data set [5] and in data set [7] was “Compound NOT metabolized” throughout. For the same compound, the “Bacterial Biotransformation” value in data set [8], in [9], in data set [10], in [11], in data set [12] and in data set [13] was “Compound NOT metabolized” each time. In addition, the “Bacterial Biotransformation” value in data set [14], in data set [15], in data set [18], in [17] and in data set [16] was “Compound NOT metabolized” throughout.
As to `CN[C@H]1CC[C@@H](c2ccc(Cl)c(Cl)c2)c2ccccc21` [SERTRALINE], the “Bacterial Biotransformation” value in data set [2], in data set [3], in data set [5], in [7], in [8] and in [9] was “Compound NOT metabolized” each time. In addition, the “Bacterial Biotransformation” value in data set [12], in [14], in data set [15], in [18] and in data set [17] was “Compound NOT metabolized” throughout.
In the case of `Nc1c2c(nc3ccccc13)CCCC2` [TACRINE], the “Bacterial Biotransformation” value in data set [1], in data set [2], in [3], in data set [4], in data set [6] and in data set [7] was “Compound NOT metabolized” each time. In addition, the “Bacterial Biotransformation” value in [8], in [9], in data set [10], in [12], in data set [13] and in data set [14] was “Compound NOT metabolized” throughout. Also, the “Bacterial Biotransformation” value in [15] and in data set [17] was “Compound NOT metabolized” throughout.
Consider `c1ccc2[nH]c(-c3cscn3)nc2c1` [THIABENDAZOLE], for which the “Bacterial Biotransformation” value in [1], in data set [2], in data set [3], in data set [4], in [6] and in data set [9] was “Compound NOT metabolized” in each case. For the same compound, the “Bacterial Biotransformation” value in data set [10], in [11], in data set [12], in [13], in [14] and in [15] was “Compound NOT metabolized” throughout. Further, the “Bacterial Biotransformation” value in data set [18] and in data set [17] was “Compound NOT metabolized” in each case.
`CC(=O)CC(c1ccccc1)c1c(O)c2ccccc2oc1=O` (stereo unspecified) [WARFARIN]: the “Bacterial Biotransformation” value was “Compound NOT metabolized” in data set [1]; “Compound NOT metabolized” in data set [2]; “Compound NOT metabolized” in data set [3]; “Compound metabolized” in [4]; “Compound metabolized” in data set [7]; “Compound NOT metabolized” in data set [8]. Moreover, the “Bacterial Biotransformation” value in data set [9], in data set [10], in data set [11], in data set [12], in [13] and in [14] was “Compound NOT metabolized” throughout. Also, the “Bacterial Biotransformation” value in [15], in data set [18], in data set [17] and in data set [16] was “Compound NOT metabolized” each time.
